Patent US9661854B2, “Molecules having pesticidal utility, and intermediates, compositions, and processes, related thereto” (Dow AgroSciences LLC, priority 2015, dated 2017)

What was measured:
[1] = test system: Beet Armyworm (Spodoptera exigua, LAPHEG); test: Bioassay on Beet Armyworm (BAW), 128-well diet tray assay; assay type: in vivo; details: 168 h, 50 μg/cm^2 on artificial diet, second instar larvae, 25° C., five to seven days, average of eight wells, read-out: BAW % Control (or Mortality) rating
Method: (§1) Example A: Bioassays on Beet Armyworm (Spodoptera exigua, LAPHEG) (“BAW”) and Cabbage Looper (Trichoplusia ni, TRIPNI) (“CL”)
(§2) Certain molecules disclosed in this document were tested against BAW and CL using procedures described in the following examples. In the reporting of the results, the “BAW & CL Rating Table” was used (See Table Section).
Bioassays on BAW were conducted using a 128-well diet tray assay. One to five second instar BAW larvae were placed in each well (3 mL) of the diet tray that had been previously filled with 1 mL of artificial diet to which 50 μg/cm^2 of the test molecule (dissolved in 50 μL of 90:10 acetone-water mixture) had been applied (to each of eight wells) and then allowed to dry. Trays were covered with a clear self-adhesive cover, vented to allow gas exchange, and held at 25° C., 14:10 light-dark for five to seven days. Percent mortality was recorded for the larvae in each well; activity in the eight wells was then averaged. The results are indicated in the table entitled “Table ABC: Biological Results” (See Table Section).

[2] = test system: Cabbage Looper (Trichoplusia ni, TRIPNI); test: Bioassay on Cabbage Looper (CL), 128-well diet tray assay; assay type: in vivo; details: 168 h, 50 μg/cm^2 on artificial diet, second instar larvae, 25° C., five to seven days, average of eight wells, read-out: CL % Control (or Mortality) rating
Method: as §1, §2
Bioassays on CL were conducted using a 128-well diet tray assay. One to five second instar CL larvae were placed in each well (3 mL) of the diet tray that had been previously filled with 1 mL of artificial diet to which 50 μg/cm^2 of the test molecule (dissolved in 50 μL of 90:10 acetone-water mixture) had been applied (to each of eight wells) and then allowed to dry. Trays were covered with a clear self-adhesive cover, vented to allow gas exchange, and held at 25° C., 14:10 light-dark for five to seven days. Percent mortality was recorded for the larvae in each well; activity in the eight wells was then averaged. The results are indicated in the table entitled “Table ABC: Biological Results” (See Table Section).

Row | Compound | mortality at 50 µg/cm2 [1] [%] | mortality at 50 µg/cm2 [2] [%]
1 | COCc1ccc(C)cc1N1C(=O)CS/C1=N\C(=O)Nc1ccc(CCc2ncn(-c3ccc(OC(F)(F)F)cc3)n2)cc1 [F21, (Z)-1-(3-(2-(Methoxymethyl)-5-methylphenyl)-4-oxothiazolidin-2-ylidene)-3-(4-(2-(1-(4-(trifluoromethoxy)phenyl)-1H-1,2,4-triazol-3-yl)ethyl)phenyl)urea] | 50 to 100 | 50 to 100
2 | COCc1ccc(C)cc1N1C(=O)CS/C1=N\C(=O)Nc1ccc(CCc2ncn(-c3ccc(OC(F)(F)F)cc3)n2)cc1F [F22, (Z)-1-(2-Fluoro-4-(2-(1-(4-(trifluoromethoxy)phenyl)-1H-1,2,4-triazol-3-yl)ethyl)phenyl)-3-(3-(2-(methoxymethyl)-5-methylphenyl)-4-oxothiazolidin-2-ylidene)urea] | 50 to 100 | 50 to 100
3 | CCC(C)Oc1ccc(C)cc1N1C(=O)CS/C1=N\C(=O)Nc1ccc(CCc2ncn(-c3ccc(OC(F)(F)F)cc3)n2)cc1F (stereo not shown) [F24, (Z)-1-(3-(2-(sec-Butoxy)-5-methylphenyl)-4-oxothiazolidin-2-ylidene)-3-(2-fluoro-4-(2-(1-(4-(trifluoromethoxy)phenyl)-1H-1,2,4-triazol-3-yl)ethyl)phenyl)urea] | 50 to 100 | 50 to 100
4 | Cc1ccc(C(C)C)c(N2C(=O)CS/C2=N\C(=O)Nc2ccc(CCc3ncn(-c4ccc(OC(F)(F)F)cc4)n3)cc2C(F)(F)F)c1 [F25, (Z)-1-(3-(2-Isopropyl-5-methylphenyl)-4-oxothiazolidin-2-ylidene)-3-(4-(2-(1-(4-(trifluoromethoxy)phenyl)-1H-1,2,4-triazol-3-yl)ethyl)-2-(trifluoromethyl)phenyl)urea] | 50 to 100 | 50 to 100
5 | CC(C)c1ccc(C(F)(F)F)cc1N1C(=O)CS/C1=N\C(=O)Nc1ccc(CCc2ncn(-c3ccc(OC(F)(F)F)cc3)n2)cc1F [F27, (Z)-1-(2-Fluoro-4-(2-(1-(4-(trifluoromethoxy)phenyl)-1H-1,2,4-triazol-3-yl)ethyl)phenyl)-3-(3-(2-isopropyl-5-(trifluoromethyl)phenyl)-4-oxothiazolidin-2-ylidene)urea] | 50 to 100 | 50 to 100
6 | Cc1ccc(C2CC2(F)F)c(N2C(=O)CS/C2=N\C(=O)Nc2ccc(CCc3ncn(-c4ccc(OC(F)(F)F)cc4)n3)cc2)c1 (stereo not shown) [F28, (Z)-1-(3-(2-(2,2-Difluorocyclopropyl)-5-methylphenyl)-4-oxothiazolidin-2-ylidene)-3-(4-(2-(1-(4-(trifluoromethoxy)phenyl)-1H-1,2,4-triazol-3-yl)ethyl)phenyl)urea] | 50 to 100 | 50 to 100
7 | CC(C)c1ccc(C(F)(F)F)cc1N1C(=O)CS/C1=N\C(=O)Nc1ccc(CCc2ncn(-c3ccc(OC(F)(F)F)cc3)n2)cc1 [F29, (Z)-1-(3-(2-Isopropyl-5-(trifluoromethyl)phenyl)-4-oxothiazolidin-2-ylidene)-3-(4-(2-(1-(4-(trifluoromethoxy)phenyl)-1H-1,2,4-triazol-3-yl)ethyl)phenyl)urea] | 50 to 100 | 50 to 100
8 | Cc1ccc(C2CC2(F)F)c(N2C(=O)CS/C2=N\C(=O)Nc2ccc(CCc3ncn(-c4ccc(OC(F)(F)F)cc4)n3)cc2F)c1 (stereo not shown) [F30, (Z)-1-(3-(2-(2,2-Difluorocyclopropyl)-5-methylphenyl)-4-oxothiazolidin-2-ylidene)-3-(2-fluoro-4-(2-(1-(4-(trifluoromethoxy)phenyl)-1H-1,2,4-triazol-3-yl)ethyl)phenyl)urea] | 50 to 100 | 50 to 100
9 | COC(C)c1ccc(C)cc1N1C(=O)CS/C1=N\C(=O)Nc1ccc(CCc2ncn(-c3ccc(OC(F)(F)F)cc3)n2)cc1 (stereo not shown) [F31, (Z)-1-(3-(2-(1-Methoxyethyl)-5-methylphenyl)-4-oxothiazolidin-2-ylidene)-3-(4-(2-(1-(4-(trifluoromethoxy)phenyl)-1H-1,2,4-triazol-3-yl)ethyl)phenyl)urea] | 50 to 100 | 50 to 100
10 | Cc1ccc(C(C)C)c(N2C(=O)CS/C2=N\C(=O)Nc2ccc(CCc3ncn(-c4ccc(OC(F)(F)F)cc4)n3)cn2)c1 [F32, (Z)-1-(3-(2-Isopropyl-5-methylphenyl)-4-oxothiazolidin-2-ylidene)-3-(5-(2-(1-(4-(trifluoromethoxy)phenyl)-1H-1,2,4-triazol-3-yl)ethyl)pyridin-2-yl)urea] | 50 to 100 | 50 to 100
11 | Cc1ccc(C(C)C)c(N2C(=O)CS/C2=N\C(=O)Nc2ccc(CCc3ncn(-c4ccc(OC(F)(F)F)cn4)n3)cn2)c1 [F33, (Z)-1-(3-(2-Isopropyl-5-methylphenyl)-4-oxothiazolidin-2-ylidene)-3-(5-(2-(1-(5-(trifluoromethoxy)pyridin-2-yl)-1H-1,2,4-triazol-3-yl)ethyl)pyridin-2-yl)urea] | 50 to 100 | 50 to 100
12 | Cc1ccc(C(C)C)c(N2C(=O)CS/C2=N\C(=O)Nc2ccc(CCc3ncn(-c4ncc(C(F)(F)F)cc4Cl)n3)cc2)c1 [F34, (Z)-1-(4-(2-(1-(3-Chloro-5-(trifluoromethyl)pyridin-2-yl)-1H-1,2,4-triazol-3-yl)ethyl)phenyl)-3-(3-(2-isopropyl-5-methylphenyl)-4-oxothiazolidin-2-ylidene)urea] | 0 | 50 to 100
13 | O=C(/N=C1\SCC(=O)N1C1CCCCC1)Nc1ccc(CCc2ncn(-c3ccc(OC(F)(F)F)cc3)n2)cc1 [F35, (Z)-1-(3-Cyclohexyl-4-oxothiazolidin-2-ylidene)-3-(4-(2-(1-(4-(trifluoromethoxy)phenyl)-1H-1,2,4-triazol-3-yl)ethyl)phenyl)urea] | 50 to 100 | 50 to 100
14 | Cc1ccc(C(C)C)c(-n2ccs/c2=N\C(=O)Nc2ccc(CCc3ncn(-c4ccc(OC(F)(F)F)cc4)n3)cc2)c1 [F36, (Z)-1-(3-(2-Isopropyl-5-methylphenyl)thiazol-2(3H)-ylidene)-3-(4-(2-(1-(4-(trifluoromethoxy)phenyl)-1H-1,2,4-triazol-3-yl)ethyl)phenyl)urea] | 50 to 100 | 50 to 100
15 | Cc1ccc(C(C)C)c(-n2ccs/c2=N\C(=O)Nc2ccc(CCc3ncn(-c4ccc(OC(F)(F)F)cc4)n3)cc2F)c1 [F37, (Z)-1-(2-Fluoro-4-(2-(1-(4-(trifluoromethoxy)phenyl)-1H-1,2,4-triazol-3-yl)ethyl)phenyl)-3-(3-(2-isopropyl-5-methylphenyl)thiazol-2(3H)-ylidene)urea] | 50 to 100 | 50 to 100
16 | Cc1ccc(C(C)C)c(N2C(=O)CS/C2=N\C(=O)Nc2ccc(/C=C/c3ncn(-c4ccc(OC(F)(F)F)cc4)n3)c(C)c2)c1 [F39, 1-((Z)-3-(2-Isopropyl-5-methylphenyl)-4-oxothiazolidin-2-ylidene)-3-(3-methyl-4-((E)-2-(1-(4-(trifluoromethoxy)phenyl)-1H-1,2,4-triazol-3-yl)vinyl)phenyl)urea] | 50 to 100 | 50 to 100
17 | COc1cc(NC(=O)/N=C2\SCC(=O)N2c2cc(C)ccc2C(C)C)ccc1/C=C/c1ncn(-c2ccc(OC(F)(F)F)cc2)n1 [F40, 1-((Z)-3-(2-Isopropyl-5-methylphenyl)-4-oxothiazolidin-2-ylidene)-3-(3-methoxy-4-((E)-2-(1-(4-(trifluoromethoxy)phenyl)-1H-1,2,4-triazol-3-yl)vinyl)phenyl)urea] | 50 to 100 | 50 to 100
18 | Cc1ccc(F)c(N2C(=O)CS/C2=N\C(=O)Nc2ccc(/C=C/c3ncn(-c4ccc(OC(F)(F)F)cc4)n3)cc2)c1 [F41, 1-((Z)-3-(2-Fluoro-5-methylphenyl)-4-oxothiazolidin-2-ylidene)-3-(4-((E)-2-(1-(4-(trifluoromethoxy)phenyl)-1H-1,2,4-triazol-3-yl)vinyl)phenyl)urea] | 50 to 100 | 50 to 100
19 | COc1ccc(C)cc1N1C(=O)CS/C1=N\C(=O)Nc1ccc(/C=C/c2ncn(-c3ccc(OC(F)(F)F)cc3)n2)cc1 [F42, 1-((Z)-3-(2-Methoxy-5-methylphenyl)-4-oxothiazolidin-2-ylidene)-3-(4-((E)-2-(1-(4-(trifluoromethoxy)phenyl)-1H-1,2,4-triazol-3-yl)vinyl)phenyl)urea] | 50 to 100 | 50 to 100
20 | Cc1ccc(C(F)(F)F)c(N2C(=O)CS/C2=N\C(=O)Nc2ccc(/C=C/c3ncn(-c4ccc(OC(F)(F)F)cc4)n3)cc2)c1 [F43, 1-((Z)-3-(5-Methyl-2-(trifluoromethyl)phenyl)-4-oxothiazolidin-2-ylidene)-3-(4-((E)-2-(1-(4-(trifluoromethoxy)phenyl)-1H-1,2,4-triazol-3-yl)vinyl)phenyl)urea] | 50 to 100 | 50 to 100
